From patent US20250177366A1, “COMPOSITIONS AND METHODS FOR ALLEVIATING PAIN AND REDUCING ADVERSIVENESS OF STIMULI” (UNIVERSITY OF WASHINGTON, priority 2021, published 2025)

System: larval zebrafish
Experiment: AITC aversion assay (chemical attraction/aversion, AITC-infused agarose)
Type: in vivo, Zebrafish (Danio rerio)
Conditions: AITC 100 mM in agarose
Description: Whether the effects of AS1 extended beyond noxious temperature sensation or could also impact other somatosensory modalities was next explored. To accomplish this, a chemical attraction/aversion assay where a thin layer of agarose was deposited along the edges of a square arena (Jordi et al., Sci. Adv. 2018; 4:1-15) were adapted. Along one wall, the agarose contained the chemical to be tested, while the other three walls were lined with control agarose. It was anticipated that a chemical gradient would be established as chemical diffused from the agarose into the surrounding water. Larvae were pre-incubated in either vehicle or AS1 and then added to the arena and the distance of each larva from the chemical-infused agarose was measured. In control experiments where all four walls of the arena were lined with agarose only, AS1 and vehicle-treated larvae were dispersed evenly throughout the arena (FIG. 3). […] When the nociceptive chemical AITC (100 mM, 10,000× maximal effective dose) was tested, vehicle-treated larvae swam away from the AITC source.
Chemical attraction/aversion assays. The agarose attraction/aversion assay was adapted from previously described experiments (Jordi et al., Sci. Adv. 2018; 4:1-15). For the AITC aversion assay, AITC and DMSO were added to molten 0.8% agarose to achieve a final concentration of 100 mM AITC and 2% DMSO. For the AS1 attraction/aversion assay, AS1 and DMSO were added to 0.8% molten agar to achieve final concentrations of 50 mM and 2%, respectively. To construct the test chambers, the lids of 10×10 cm square petri dishes (insert cat #and company) were lined on four sides with either the test (chemical-containing) or plain agarose (300 μL per side) and allowed to solidify. For all experiments, 30-40 randomly selected 6 dpf zebrafish were caught with a 10 mL pipette pump (Bel-Air Products, cat #: 13683C) equipped with a glass wide-bored Pasteur pipet (Fisher Scientific, cat #: 22-037-540) and deposited into a standard 10 cm diameter petri dish (Fisher Scientific, cat #: 07-202-031). As much E2 media as possible was carefully removed using the same pipette. For single incubation experiments, 30 mL of 1× solutions of the control or test chemical was added to each petri dish, and fish were incubated for 10 minutes at 28.5° C. For double incubation experiments, 15 mL of 1× solutions containing control (DMSO) or test chemicals was added to the larvae-containing petri dish. Following a ten minute incubation, 15 mL of the second incubation solution (1× control or test chemical +/−2× AS1) was added to the petri dish, and the fish were incubated for a second ten minute block. The final concentration of DMSO in all solutions was 1%. In all double-incubation experiments, the final concentration of AS1 was 5 μM unless otherwise noted. After completion of the last incubation period, the contents of each petri dish were poured into separate agarose-lined square dishes. Swimming behavior was immediately recorded for 20 minutes using the same high-definition camcorder in the thermal preference assays.

`CC(C)c1ccc(C(=O)Nc2ccncc2)cc1` [AS1, 4-propan-2-yl-N-pyridin-4-ylbenzamide] was tested. Which “attraction/aversion to AITC source” value (1 μM AS1) did it give?
Its value is “unable to induce attraction to AITC”.

What about the “attraction/aversion to AITC source” value (2.5 μM AS1) of the same molecule?
The value was “largely replicated the effects of 5 μM AS1”.

What about the “attraction/aversion to AITC source” value (5 μM AS1) of the same molecule?
Its value is “strongly preferred to be near the AITC source”.
